# Test results taken from PMC10104807, “Modulation of tau tubulin kinases (TTBK1 and TTBK2) impacts ciliogenesis” (Scientific Reports, 2023).
# Where “and” joins values, the source holds several entries; their conditions need not be identical. Identical values can stand only once. Like-named read-outs stand apart in the source and are kept apart here.
# Key:
# TTBK2 kinase domain = target: T1, TTBK2 kinase domain (Homo sapiens, UniProt Q6IQ55); assay: Thermal shift assay; type: binding; settings: kinase domain 2 µM, inhibitor 10 µM
# T1 construct: Either the TTBK1 or TTBK2 kinase domain at 2 µM
# Method: Either the TTBK1 or TTBK2 kinase domain at 2 µM in 10 mM HEPES pH 7.5 and 500 mM NaCl was mixed with the inhibitors at 10 µM in the presence of SyPRO orange dye (Invitrogen). A Real-Time PCR Mx3005p machine (Stratagene) was used to measure the fluorescence spectrum. The Tm shift assays and data evaluation for melting temperatures were performed according to the previously described protocol.
# TAOK3 = target: T2, TAOK3 (Homo sapiens, UniProt Q9H2K8); assay: DiscoverX scanMAX binding assay; settings: for TAOK3 % control at 1000nM: 1 μM
# T2 construct: purchased Eurofins (radiometric) / Eurofins DiscoverX scanMAX / Reaction Biology / SignalChem
# T2 sequence (Q9H2K8 1-898): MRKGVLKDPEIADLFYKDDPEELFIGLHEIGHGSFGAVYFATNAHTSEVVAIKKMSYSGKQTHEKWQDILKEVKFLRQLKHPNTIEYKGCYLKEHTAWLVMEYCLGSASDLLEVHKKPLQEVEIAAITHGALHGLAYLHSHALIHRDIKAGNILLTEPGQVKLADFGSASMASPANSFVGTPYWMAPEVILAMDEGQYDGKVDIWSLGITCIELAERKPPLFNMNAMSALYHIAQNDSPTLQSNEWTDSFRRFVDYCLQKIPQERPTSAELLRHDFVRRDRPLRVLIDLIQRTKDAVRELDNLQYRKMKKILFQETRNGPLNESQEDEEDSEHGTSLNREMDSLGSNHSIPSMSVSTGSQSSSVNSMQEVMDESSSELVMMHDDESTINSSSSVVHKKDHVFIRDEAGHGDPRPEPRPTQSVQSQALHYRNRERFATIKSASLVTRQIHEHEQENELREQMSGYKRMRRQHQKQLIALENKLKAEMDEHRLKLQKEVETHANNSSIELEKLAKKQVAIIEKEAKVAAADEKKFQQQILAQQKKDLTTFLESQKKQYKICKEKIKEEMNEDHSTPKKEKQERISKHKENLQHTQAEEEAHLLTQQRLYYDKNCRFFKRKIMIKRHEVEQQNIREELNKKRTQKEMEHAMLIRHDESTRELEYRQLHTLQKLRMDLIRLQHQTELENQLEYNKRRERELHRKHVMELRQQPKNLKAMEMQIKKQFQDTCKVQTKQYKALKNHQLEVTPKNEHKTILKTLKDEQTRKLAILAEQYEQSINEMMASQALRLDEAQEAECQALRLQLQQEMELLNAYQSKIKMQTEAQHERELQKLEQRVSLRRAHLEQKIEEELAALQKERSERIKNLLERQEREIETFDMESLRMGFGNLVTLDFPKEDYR
# From the text: (§1) This panel includes 403 wild-type (WT) human kinases but not TTBK1/2. […] Substantial overlap between the MRC and DiscoverX scanMAX kinase panels allows the comparison of results for the same kinases in two different assay formats (enzymatic versus binding, respectively) at the same concentration. Selectivity results are included in two columns within Table 1. […] The rightmost column converts this selectivity score into the number of kinases with a PoC < 10 in the scanMAX panel.
# (§2) The Eurofins DiscoverX Corporation scanMAX assay platform was employed to assess the selectivity of specific analogs at a single concentration (1 µM). As described previously, this assay platform profiles a compound against 403 wild-type human kinases and delivers percent of control (PoC) values. These percent of control values are included in Table 1 and corresponding kinome tree diagrams as well as tables for each analog included in Fig. S1.
# TAOK2 = target: T3, TAOK2 (Homo sapiens, UniProt Q9UL54); assay: DiscoverX scanMAX binding assay; settings: 1 μM
# T3 construct: purchased Eurofins
# T3 sequence (Q9UL54 1-1235): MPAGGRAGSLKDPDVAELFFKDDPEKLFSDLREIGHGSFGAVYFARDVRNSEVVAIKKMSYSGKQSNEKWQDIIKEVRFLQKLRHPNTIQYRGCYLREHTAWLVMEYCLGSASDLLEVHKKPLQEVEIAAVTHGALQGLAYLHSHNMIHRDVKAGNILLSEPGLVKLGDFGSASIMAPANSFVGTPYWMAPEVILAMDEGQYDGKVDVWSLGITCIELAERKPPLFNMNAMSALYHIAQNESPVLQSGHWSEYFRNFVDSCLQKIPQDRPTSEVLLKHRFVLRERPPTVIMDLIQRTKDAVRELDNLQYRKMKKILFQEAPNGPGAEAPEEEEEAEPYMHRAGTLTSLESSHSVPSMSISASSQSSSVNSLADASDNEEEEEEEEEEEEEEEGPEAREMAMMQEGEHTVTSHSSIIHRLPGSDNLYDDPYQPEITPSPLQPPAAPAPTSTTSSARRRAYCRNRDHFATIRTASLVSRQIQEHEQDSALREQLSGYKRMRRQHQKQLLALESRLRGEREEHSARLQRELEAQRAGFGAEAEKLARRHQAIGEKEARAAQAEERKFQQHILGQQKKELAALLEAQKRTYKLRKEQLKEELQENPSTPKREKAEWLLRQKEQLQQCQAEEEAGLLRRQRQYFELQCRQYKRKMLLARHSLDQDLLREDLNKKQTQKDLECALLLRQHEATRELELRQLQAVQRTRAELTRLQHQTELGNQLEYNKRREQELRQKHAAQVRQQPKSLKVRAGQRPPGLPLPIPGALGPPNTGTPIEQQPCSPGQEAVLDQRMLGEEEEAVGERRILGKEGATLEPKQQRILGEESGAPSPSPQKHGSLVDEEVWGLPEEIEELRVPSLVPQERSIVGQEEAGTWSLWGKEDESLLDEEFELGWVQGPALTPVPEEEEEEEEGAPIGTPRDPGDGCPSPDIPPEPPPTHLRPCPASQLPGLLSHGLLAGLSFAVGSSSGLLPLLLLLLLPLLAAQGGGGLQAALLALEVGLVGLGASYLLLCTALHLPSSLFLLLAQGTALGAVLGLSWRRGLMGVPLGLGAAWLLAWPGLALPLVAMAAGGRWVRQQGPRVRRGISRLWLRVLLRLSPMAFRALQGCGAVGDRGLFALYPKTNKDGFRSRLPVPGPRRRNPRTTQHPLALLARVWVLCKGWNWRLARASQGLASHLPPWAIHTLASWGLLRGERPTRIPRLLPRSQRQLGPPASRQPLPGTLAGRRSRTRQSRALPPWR
# From the text: as §1, §2
# TTBK2 = target: T4, TTBK2 (Homo sapiens, UniProt Q6IQ55); assay: Eurofins enzymatic radiometric kinase assay; type: biochemical; settings: for TTBK2 PoC: 1 μM, duplicate, lower = greater inhibition
# T4 construct: purchased Eurofins
# [1] = ATP at Km, dose–response 9-pt curve
# T4 sequence (Q6IQ55 whole entry): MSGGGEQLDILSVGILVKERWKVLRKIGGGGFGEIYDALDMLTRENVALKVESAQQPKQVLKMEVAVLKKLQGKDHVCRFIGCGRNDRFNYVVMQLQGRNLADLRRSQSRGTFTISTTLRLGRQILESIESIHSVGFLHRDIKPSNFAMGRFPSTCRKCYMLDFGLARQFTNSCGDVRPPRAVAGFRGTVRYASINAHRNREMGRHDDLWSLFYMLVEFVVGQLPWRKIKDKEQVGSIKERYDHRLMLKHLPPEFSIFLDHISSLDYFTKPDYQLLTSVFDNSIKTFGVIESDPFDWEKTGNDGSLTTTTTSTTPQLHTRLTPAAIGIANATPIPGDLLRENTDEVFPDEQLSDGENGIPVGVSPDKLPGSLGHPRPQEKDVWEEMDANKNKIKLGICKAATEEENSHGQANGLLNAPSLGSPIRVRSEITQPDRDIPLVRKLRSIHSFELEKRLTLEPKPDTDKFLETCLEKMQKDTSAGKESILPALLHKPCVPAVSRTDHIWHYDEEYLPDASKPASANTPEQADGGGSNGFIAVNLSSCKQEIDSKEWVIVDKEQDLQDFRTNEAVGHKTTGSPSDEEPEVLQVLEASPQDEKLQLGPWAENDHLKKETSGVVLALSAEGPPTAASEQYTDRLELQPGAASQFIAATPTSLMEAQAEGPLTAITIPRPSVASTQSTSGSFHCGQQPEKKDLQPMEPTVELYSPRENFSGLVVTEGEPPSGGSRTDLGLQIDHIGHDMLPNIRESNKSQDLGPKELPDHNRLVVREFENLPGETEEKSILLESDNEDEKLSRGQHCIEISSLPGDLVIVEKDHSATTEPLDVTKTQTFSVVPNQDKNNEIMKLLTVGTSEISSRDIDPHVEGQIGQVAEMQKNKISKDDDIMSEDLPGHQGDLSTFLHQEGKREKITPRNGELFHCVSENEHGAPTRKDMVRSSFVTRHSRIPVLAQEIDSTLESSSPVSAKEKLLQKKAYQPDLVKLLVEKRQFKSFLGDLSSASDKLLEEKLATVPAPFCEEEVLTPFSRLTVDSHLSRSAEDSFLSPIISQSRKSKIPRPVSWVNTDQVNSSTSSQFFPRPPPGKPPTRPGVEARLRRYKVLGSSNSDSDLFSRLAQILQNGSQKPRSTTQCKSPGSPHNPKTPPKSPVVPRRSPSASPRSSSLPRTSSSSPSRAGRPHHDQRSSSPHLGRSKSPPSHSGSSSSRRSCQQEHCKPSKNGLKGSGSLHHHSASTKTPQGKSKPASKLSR
# T1 sequence (Q6IQ55 21-284 limits assumed): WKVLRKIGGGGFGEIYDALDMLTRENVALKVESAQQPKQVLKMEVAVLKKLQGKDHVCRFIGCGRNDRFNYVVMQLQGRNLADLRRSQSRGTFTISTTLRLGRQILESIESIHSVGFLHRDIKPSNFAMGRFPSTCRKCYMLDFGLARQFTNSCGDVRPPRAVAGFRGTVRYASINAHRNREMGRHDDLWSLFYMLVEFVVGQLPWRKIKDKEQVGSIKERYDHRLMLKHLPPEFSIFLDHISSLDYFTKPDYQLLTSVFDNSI
Structure (SMILES),ΔTm at 10 µM (TTBK2 kinase domain),"kinase binding, percent of control at 1 µM (TAOK3; read-out: TAOK3 % control at 1000nM)",TAOK2 % control at 1000nM / DiscoverX PoC value (TAOK2),TTBK2 PoC (TTBK2; ATP at Km),ΔTm TTBK2 (TTBK2 kinase domain),TAOK3 % control at 1000nM (TAOK3),IC50 (TTBK2),IC50 (TTBK2; [1])
"CC(C)(O)C#Cc1ccc2[nH]c3c(c2c1)-c1nc(N)ncc1CCC3 [AMG28, reference compound]",6.2 °C,1.8%,3.5 % control,20 PoC,,,,
CC(C)(O)C#Cc1ccc2[nH]c3c(c2c1)-c1nc(N)ncc1CC3 [Compound 1],,,1.5 % control,43 PoC,5.6 °C,1.5 % control,> 1 µM,1.21 µM
CC(C)(O)C#Cc1ccc2[nH]c3c(c2c1)-c1nc(N)ncc1CCCC3 [Compound 2],,,,69 PoC and 69/NT PoC,,,,
CC(C)(O)C#Cc1ccc2[nH]cc(-c3ccnc(N)n3)c2c1 [Compound 3],,,1.3 % control,24 PoC,6.2 °C,0.4 % control,,0.384 µM
COC(C)(C)C#Cc1ccc2[nH]c3c(c2c1)-c1nc(N)ncc1CCC3 [Compound 11],,,,110 PoC and 110/NT PoC,,,,
